Reference: patent US20200022965A1, “PHARMACEUTICAL COMPOSITION FOR CANCER TREATMENT AND USE THEREOF” (priority 2016, published 2020)

Assays:
[1] = cited from earlier work; for oral absorption: taken orally
[2] = system: colonic cancer cells HCT116; experiment: HCT116 colonic cancer xenograft in nude mice, two weeks of drug delivery (Embodiment 1): cancer volume and weight; format: in vivo; settings: HCT116, ig, within 2 weeks, vs solvent group, FIG. 1-3
Excerpt: Nude mice were transplanted with colonic cancer cells HCT116; after the cancer volumes reached 200-300 mm3, the mice were randomly grouped, 8 pieces in each group; the mice were fed with drugs for two weeks. The drug delivery solution can be seen in Table 2 below: […]

[3] = system: dihydropyrimidine dehydrogenase (DPD); settings: cited from earlier work
[4] = cited from earlier work

Structure (SMILES)	t1/2 ([1]; in vivo)	oral absorption [1]	anti-cancer activities when individually used [4]	further results
O=c1[nH]cc(F)c(=O)[nH]1 [5-Fluorouracil (5-FU), 5-Fluorouracil]	absorption t1/210~20 min,	Incomplete oral	–	–
CCCCCOC(=O)Nc1nc(=O)n([C@@H]2O[C@H](C)[C@@H](O)[C@H]2O)cc1F [Capecitabine, 5′-deoxy-5-fluoro-N[(pentyloxy)carbonyl]cytidine]	orally. t1/2 0.5~1.0 h.	Quickly absorbed by	–	5-FU concentration in the cancer tissues versus that in the blood ([1]; after the drug is taken orally): is 100 times higher; volume and weight of the cancer [2]: failed to reduce the volume and weight of the cancer
Oc1cc(O)c(Cl)cn1 [Gimeracil (CDHP), 2,4-dyhydroxy-5-chloro pyridine]	–	–	no obvious anti-cancer activities	5-FU degradation inhibition effect relative to uracil [3]: 180 times that of the uracil; DPD inhibiting effect relative to uracil ([3]; reversible inhibitor of the DPD): 180 times that of uracil
O=C(O)c1nc(=O)[nH]c(=O)[nH]1 [Oteracil potassium (OXO), Oteracil potassium]	–	–	no obvious anti-cancer activities	–
O=c1[nH]c(=O)n(C2CCCO2)cc1F (centres unmarked) [Tegafur (FT-207), 1-(etrahydro-2-furyl)-5-fluoro-2,4(1H,3H)-pyrimidinedione]	absorption t1/25 h.	Good oral	–	lipid solubility ([1]; in vivo): tract. It has higher; discharged in the original form along with the urine ([1]; within 24 h after drug delivery): 23% is discharged
